Source: PMC6269910 (Molecules, 2013)

Tests used:
[1] = test system: carrageenan-induced hind paw edema; experiment: Carrageenan-induced hind paw edema model; assay type: in vivo, mice
Protocol: Locally bred balb/c mice of both sexes (30-35 g) were purchased from the animal breeding laboratories of Inonu University ([…], Turkey). The animals were fed a standard pellet diet and water ad libitum in a temperature-controlled room. On the day before the treatments, food was withdrawn, but the animals were allowed free access of water. The allocation of animals to different groups was randomized, and the experiments were carried out under blind conditions. Mice used in the present study were cared for in accordance with the directory of the Inonu University Animal Care Unit, which applies the guidelines of the National Institutes of Health on laboratory animal welfare. Procedures involving animals and their care were conducted in conformity with international laws and policies and animal studies accepted by Inonu University Ethical Council (2011/A17). Test samples, suspended in a mixture of distilled water and 0.5% sodium carboxymethyl cellulose (CMC), were given orally to the animals. The control group animals received the same experimental handling as those of the test groups, except that the drug treatment was replaced with appropriate volumes of the dosing vehicle. […] For the preliminary activity screening, each test group was composed of four mice. […] Because of the daily changing circumstance, we used another control group for each experiment. For the determination of the effects on carrageenan-induced paw oedema, the modified method of Kasahara et al. was employed. One hour after the oral administration of either test sample or dosing vehicle, each mouse was injected with a freshly prepared (0.5 mg/25 μL) suspension of carrageenan (Sigma, St. Louis, MO, USA) in physiological saline (154 mM NaCl). The subplantar tissue of the right hind paw was the injection site for all mice. The contralateral paw (left hind paw) was injected with 25 μL saline solution as the internal control. […] The difference in footpad thickness between the right and left foot indicated the degree of inflammation for each mouse. The change in paw volume, either increase or decrease, was calculated and compared with the control group (dosing vehicle) and analyzed using statistical methods.

[2] = test system: acetic acid-induced abdominal constriction; experiment: Acetic acid-induced writhing (Koster) test; assay type: in vivo, mice; settings: 100 mg/kg oral
Protocol: Test samples, suspended in a mixture of distilled water and 0.5% sodium carboxymethyl cellulose (CMC), were given orally to the animals. The control group animals received the same experimental handling as those of the test groups, except that the drug treatment was replaced with appropriate volumes of the dosing vehicle. […] One hour after oral administration of test sample, each mouse was injected intraperitoneally with 3% (w/v) acetic acid solution (0.1 mL/10 g, bw). Starting 5 min after the acetic acid injection, the number of muscular contractions on mice were counted for a period of 10 min. A significant reduction in the number of writhings by any treatment as compared to the number of writhings in control animals was considered a positive analgesic response. The analgesic activity was expressed as a percentage change from writhing controls. ASA was used as a reference compound and administered at 200 mg/kg.

stomach = experiment: Gastric-ulcerogenic effect (ulcer score); assay type: in vivo, mice; settings: 200 mg/kg p.o.; animals with lesions/animals
LPO = LPO (TBARS) level in liver, kidney, colon, brain; assay type: in vivo, mice; settings: 72 h
Protocol: (§1) Tissue samples were homogenized with ice-cold 150 mM KCl for the determination of LPO and glutathione (GSH) levels. The LPO levels were assayed by monitoring TBARS formation as described above.

glutathione (GSH) = experiment: GSH level in liver, kidney, colon, brain; assay type: in vivo, mice; settings: 72 h
Protocol: as §1

[3] = test system: superoxide dismutase (SOD); experiment: SOD activity in liver, kidney, colon, brain; assay type: in vivo, mice; settings: 72 h
Protocol: SOD is a major antioxidant enzyme found in cells, which protect cells from oxidative stress. SOD activity in the tissue samples was measured according to the previously described method.

[4] = molecular target: T1, HCV NS5B RNA dependent RNA polymerase (Hepatitis C virus genotype 1b, UniProt P26663); experiment: NS5B inhibition assay (primer dependent elongation, poly rA-U12); assay type: biochemical; settings: read-out: Anti-NS5B Activity (% Inh., 100 µM)
T1 construct: HCV NS5B RNA dependent RNA polymerase activity
Protocol: The compounds 1a–e and 2a–e were reconstituted in DMSO as 50 mM stocks, and serially diluted in DMSO to obtain working stocks. Wedelolactone, a known inhibitor of HCV NS5B activity, was employed as a reference compound. Preliminary screening was carried out at 100 μM to identify a wider range of compounds.
All synthesized compounds were evaluated for their effect on HCV NS5B RNA dependent RNA polymerase activity in primer dependent elongation assays as previously described. Activity of NS5B in the absence of the inhibitor but containing an equivalent amount of DMSO (control reaction) was set at 100% and that in the presence of the inhibitor was quantified relative to this control.

T1 sequence (P26663 2420-3010): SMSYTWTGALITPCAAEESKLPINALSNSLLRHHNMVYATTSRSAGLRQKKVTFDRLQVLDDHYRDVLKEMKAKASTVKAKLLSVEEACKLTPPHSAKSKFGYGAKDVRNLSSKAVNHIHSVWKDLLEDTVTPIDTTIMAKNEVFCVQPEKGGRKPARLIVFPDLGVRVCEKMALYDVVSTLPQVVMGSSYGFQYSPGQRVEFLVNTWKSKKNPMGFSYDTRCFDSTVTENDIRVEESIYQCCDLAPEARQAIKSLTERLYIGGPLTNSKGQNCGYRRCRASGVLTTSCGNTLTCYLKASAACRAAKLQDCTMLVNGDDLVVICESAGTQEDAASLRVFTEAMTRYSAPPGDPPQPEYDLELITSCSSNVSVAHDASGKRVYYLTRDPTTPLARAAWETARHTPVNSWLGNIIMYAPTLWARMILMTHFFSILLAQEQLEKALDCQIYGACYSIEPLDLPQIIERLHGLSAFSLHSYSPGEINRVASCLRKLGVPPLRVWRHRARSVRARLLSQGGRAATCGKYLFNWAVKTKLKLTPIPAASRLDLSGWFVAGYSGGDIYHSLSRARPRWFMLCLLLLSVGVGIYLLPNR

LPO (LPO; brain, 100 mg/kg oral): 8.36 ± 2.61 nmol/g tissue | LPO (LPO; brain, 200 mg/kg oral): 9.40 ± 2.08 nmol/g tissue | LPO (LPO; colon, 100 mg/kg oral): 8.66 ± 2.23 nmol/g tissue | LPO (LPO; colon, 200 mg/kg oral): 11.04 ± 2.11 nmol/g tissue | LPO (LPO; kidney, 100 mg/kg oral): 10.96 ± 2.01 nmol/g tissue | LPO (LPO; kidney, 200 mg/kg oral): 12.56 ± 2.96 nmol/g tissue | LPO (LPO; liver, 100 mg/kg oral): 9.78 ± 1.30 nmol/gtissue | LPO (LPO; liver, 200 mg/kg oral): 13.72 ± 3.05 nmol/gtissue | GSH (glutathione (GSH); brain, 100 mg/kg oral): 18.7 ± 5.52 µmol/g tissue | GSH (glutathione (GSH); brain, 200 mg/kg oral): 18.74 ± 3.03 µmol/g tissue | GSH (glutathione (GSH); colon, 100 mg/kg oral): 27.22 ± 2.41 µmol/g tissue | GSH (glutathione (GSH); colon, 200 mg/kg oral): 25.16 ± 2.76 µmol/g tissue | GSH (glutathione (GSH); kidney, 100 mg/kg oral): 17.02 ± 5.23 µmol/g tissue | GSH (glutathione (GSH); kidney, 200 mg/kg oral): 18.26 ± 3.28 µmol/g tissue | GSH (glutathione (GSH); liver, 100 mg/kg oral): 22.68 ± 1.20 µmol/g tissue | GSH (glutathione (GSH); liver, 200 mg/kg oral): 24.58 ± 4.47 µmol/g tissue | SOD ([3]; brain, 100 mg/kg oral): 19.17 ± 7.41 U/g tissue | SOD ([3]; brain, 200 mg/kg oral): 19.22 ± 10.76 U/g tissue | SOD ([3]; colon, 100 mg/kg oral): 16.56 ± 4.13 U/g tissue | SOD ([3]; colon, 200 mg/kg oral): 21.17 ± 4.15 U/g tissue | SOD ([3]; kidney, 100 mg/kg oral): 20.26 ± 8.71 U/g tissue | SOD ([3]; kidney, 200 mg/kg oral): 15.37 ± 7.33 U/g tissue | SOD ([3]; liver, 100 mg/kg oral): 21.15 ± 9.98 U/g tissue | SOD ([3]; liver, 200 mg/kg oral): 11.72 ± 5.10 U/g tissue | inhibition at 100 µM [4]: 49.4%
Structure (SMILES): CCNC(=S)NS(=O)(=O)c1ccc(-n2nc(C(F)(F)F)cc2-c2ccc(C)cc2)cc1 [Compound 1a, N-(Ethylcarbamothioyl)-4-[5-(4-methylphenyl)-3-(trifluoromethyl)-1H-pyrazol-1-yl] benzenesulfonamide]
Swelling in thickness ± SEM ([1]; 50 mg/kg per os, 90 min): 70.0 ± 6.5 × 10^−2 mm | percent inhibitory activity ([1]; 50 mg/kg per os, 90 min): 2.7% | Swelling in thickness ± SEM ([1]; 50 mg/kg per os, 180 min): 72.0 ± 5.1 × 10^−2 mm | percent inhibitory activity ([1]; 50 mg/kg per os, 180 min): 21.7% | Swelling in thickness ± SEM ([1]; 50 mg/kg per os, 270 min): 90.0 ± 9.3 × 10^−2 mm | percent inhibitory activity ([1]; 50 mg/kg per os, 270 min): 25.6% | Swelling in thickness ± SEM ([1]; 50 mg/kg per os, 360 min): 100.0 ± 6.5 × 10^−2 mm | percent inhibitory activity ([1]; 50 mg/kg per os, 360 min): 22.4% | Swelling in thickness ± SEM ([1]; 100 mg/kg per os, 90 min): 58.1 ± 6.6 × 10^−2 mm | percent inhibitory activity ([1]; 100 mg/kg per os, 90 min): 19.4% | Swelling in thickness ± SEM ([1]; 100 mg/kg per os, 180 min): 72.9 ± 11.9 × 10^−2 mm | percent inhibitory activity ([1]; 100 mg/kg per os, 180 min): 19.7% | Swelling in thickness ± SEM ([1]; 100 mg/kg per os, 270 min): 72.7 ± 16.7 × 10^−2 mm | percent inhibitory activity ([1]; 100 mg/kg per os, 270 min): 39.5% | Swelling in thickness ± SEM ([1]; 100 mg/kg per os, 360 min): 77.9 ± 11.7 × 10^−2 mm | percent inhibitory activity ([1]; 100 mg/kg per os, 360 min): 39.7% | Swelling in thickness ± SEM ([1]; 200 mg/kg per os, 90 min): 54.6 ± 7.9 × 10^−2 mm | percent inhibitory activity ([1]; 200 mg/kg per os, 90 min): 25.0% | Swelling in thickness ± SEM ([1]; 200 mg/kg per os, 180 min): 74.2 ± 8.2 × 10^−2 mm | percent inhibitory activity ([1]; 200 mg/kg per os, 180 min): 19.3% | Swelling in thickness ± SEM ([1]; 200 mg/kg per os, 270 min): 117.5 ± 9.8 × 10^−2 mm | percent inhibitory activity ([1]; 200 mg/kg per os, 270 min): 2.9% | Swelling in thickness ± SEM ([1]; 200 mg/kg per os, 360 min): 97.4 ± 5.6 × 10^−2 mm | percent inhibitory activity ([1]; 200 mg/kg per os, 360 min): 24.5% | anti-inflammatory activity (in words) ([1]; all doses, all measurement intervals): moderate-to-good | Writhing test (% inh.) [2]: 67.8% | Writhing test (Mean ± SEM) ([2]; writhings counted 10 min from 5 min after acetic acid): 5.6 ± 0.9 | Ulcer score (stomach): 0/5
